Measured values reported in patent US20050187240A1, “Aaptamine and isoaaptamine and structural modifications thereof” (The Arizona Board of Regents, Acting for and on behalf of …, priority 2004, published 2005).
Converted amounts (≈) assume the structure as drawn. Counter-ions that a name gives are not always drawn.

Assays:
Escherichia coli = assay: Broth microdilution susceptibility assay, Escherichia coli; type: cell-based; conditions: Table 4, read-out: Range of minimum inhibitory concentration
[1] = test system: Stenotrophomonas maltophilia; assay: Broth microdilution susceptibility assay, Stenotrophomonas maltophilia; type: cell-based; conditions: Table 4, Stenotrophomonas maltophil, read-out: Range of minimum inhibitory concentration
Enterobacter cloacae = assay: Broth microdilution susceptibility assay, Enterobacter cloacae; type: cell-based; conditions: Table 4, read-out: Range of minimum inhibitory concentration
Cryptococcus neoformans = assay: Broth microdilution susceptibility assay, Cryptococcus neoformans; type: cell-based; conditions: Table 4, read-out: Range of minimum inhibitory concentration
Staphylococcus aureus = assay: Broth microdilution susceptibility assay, Staphylococcus aureus; type: cell-based; conditions: Table 4, read-out: Range of minimum inhibitory concentration
Enterococcus faecalis = assay: Broth microdilution susceptibility assay, Enterococcus faecalis; type: cell-based; conditions: Table 4, read-out: Range of minimum inhibitory concentration
Candida albicans = assay: Broth microdilution susceptibility assay, Candida albicans; type: cell-based; conditions: Table 4, read-out: Range of minimum inhibitory concentration
Micrococcus luteus = assay: Broth microdilution susceptibility assay, Micrococcus luteus; type: cell-based; conditions: Table 4, read-out: Range of minimum inhibitory concentration
[2] = test system: murine P388 lymphocytic leukemia cell line and a selection of human cancer cell lines; assay: Cancer cell growth inhibition, P388 and human cancer cell line panel (summary in words); type: cell-based
Source text: (§1) Biology The cancer cell growth inhibitory properties were examined using the murine P388 lymphocytic leukemia cell line and a selection of human cancer cell lines.

Neisseria gonorrhoeae = assay: Broth microdilution susceptibility assay, Neisseria gonorrhoeae; type: cell-based; conditions: Table 4, read-out: Range of minimum inhibitory concentration
Streptococcus pneumoniae = assay: Broth microdilution susceptibility assay, Streptococcus pneumoniae; type: cell-based; conditions: Table 4, read-out: Range of minimum inhibitory concentration
colon KM 20L2 = assay: Cancer cell growth inhibition, colon KM 20L2; type: cell-based, human; conditions: Homo sapiens; Table 3; colon KM 20L2; read-out: Cancer cell growth inhibitory ED50
How it was run: (§2)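 Growth inhibition in murine P388 leukemia and human cancer cell line panels (Arizona State University minipanel and NCI 60-cell screen).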

CNS SF-268 = assay: Cancer cell growth inhibition, CNS SF-268; type: cell-based, human; conditions: Homo sapiens; Table 3; CNS SF-268; read-out: Cancer cell growth inhibitory ED50
Protocol: as §1
(§3) All of the synthetic products were evaluated against a minipanel of human cancer cell lines, the murine P388 lymphocytic leukemia cell line and a selection of microorganisms.

prostrate DU-145 = assay: Cancer cell growth inhibition, prostate DU-145; type: cell-based, human; conditions: Homo sapiens; Table 3; prostrate DU-145; read-out: Cancer cell growth inhibitory ED50
Protocol: as §1, §3

breast MCF-7 = assay: Cancer cell growth inhibition, breast MCF-7; type: cell-based, human; conditions: Homo sapiens, MCF7; Table 3; breast MCF-7; read-out: Cancer cell growth inhibitory ED50
Protocol: as §1, §3

pancreas BXPC-3 = assay: Cancer cell growth inhibition, pancreas BXPC-3; type: cell-based, human; conditions: Homo sapiens; Table 3; pancreas BXPC-3; read-out: Cancer cell growth inhibitory ED50
Protocol: as §1, §3

lung NCI-H460 = assay: Cancer cell growth inhibition, lung NCI-H460; type: cell-based, human; conditions: Homo sapiens; Table 3; lung NCI-H460; read-out: Cancer cell growth inhibitory ED50
How it was run: as §2

[3] = test system: murine P388 lymphocytic leukemia cell line; assay: Cancer cell growth inhibition, murine P388 lymphocytic leukemia cell line; type: cell-based; conditions: Mus musculus, P388; Table 3; leukemia P-388; read-out: Cancer cell growth inhibitory ED50
How it was run: as §2

[4] = Antimicrobial activity in the presence of human serum; type: cell-based
Source text: The antimicrobial activity of phenols 15 and 18 in the presence of human serum was also investigated.

| SMILES | MIC (Escherichia coli) | MIC [1] | MIC (Enterobacter cloacae) | MIC (Cryptococcus neoformans) | MIC (Staphylococcus aureus) | MIC (Enterococcus faecalis) | MIC (Candida albicans) | MIC (Micrococcus luteus) | cancer cell growth inhibitory activity [2] | MIC (Neisseria gonorrhoeae) | MIC (Streptococcus pneumoniae) | IC50 (colon KM 20L2) | IC50 (CNS SF-268) | IC50 (prostrate DU-145) | IC50 (breast MCF-7) | IC50 (pancreas BXPC-3) | IC50 (lung NCI-H460) | IC50 [3] | minimum inhibitory concentrations in the presence of human serum versus absence of serum [4] |
| --- | --- | --- | --- | --- | --- | --- | --- | --- | --- | --- | --- | --- | --- | --- | --- | --- | --- | --- | --- |
| COc1cc2ccnc3c2c(c1OC)N(C)C=C3 [Compound 14, 1-Methyl-8,9-dimethoxy-1H-benzo[de][1,6]naphthyridine trifluoromethane-sulfonate] | > 64 µg/mL | > 64 µg/mL | > 64 µg/mL | > 64 µg/mL | > 64 µg/mL | > 64 µg/mL | > 64 µg/mL | > 64 µg/mL | marginal activity | > 64 µg/mL | 64 µg/mL (≈ 264 µM) |  |  |  |  |  |  |  |  |
| CN1C=Cc2cc(O)c(O)c3nccc1c23 [Compound 7, 4-Methyl-8,9-dihydroxy-4H-benzo[de][1,6]naphthyridine] | > 64 µg/mL | > 64 µg/mL | > 64 µg/mL | > 64 µg/mL | > 64 µg/mL | > 64 µg/mL | > 64 µg/mL | > 64 µg/mL | marginal activity | 64 µg/mL (≈ 299 µM) | > 64 µg/mL | > 10 µg/mL | 5.6 µg/mL (≈ 26.1 µM) | > 10 µg/mL | 4.1 µg/mL (≈ 19.1 µM) | > 10 µg/mL | > 10 µg/mL | 2.2 µg/mL (≈ 10.3 µM) |  |
| Oc1cc2ccnc3c2c(c1O)NC=C3 [Compound 15, 8,9-Dihydroxy-1H-Benzo[de][1,6]naphthyridine hydrobromide] | 16 to 64 µg/mL | 32 µg/mL | > 64 µg/mL | 32 µg/mL | 4 to 8 µg/mL | 8 to 16 µg/mL | 64 µg/mL | 4 µg/mL |  | > 0.5 µg/mL | 8 µg/mL | 0.3 µg/mL | 0.8 µg/mL | 1.1 µg/mL | 0.31 µg/mL | 0.33 µg/mL | 0.52 µg/mL | 0.12 µg/mL | identical or one 2-fold dilution lower |
